Source: patent US11319376B2, “Combination of glucagon receptor antagonists and PI3K pathway inhibitors for the treatment of cancer” (REMD Biotherapeutics, Inc., priority 2016, dated 2022)

Tests used:
C57BL/6 mice = experiment: Effect of REMD2.59c pretreatment on induction of hyperglycemia by PI3K/Akt pathway inhibitors in C57BL/6 fed mice; type: in vivo, mouse; conditions: fed blood glucose, −24 h pretreatment ASN vehicle or REMD2.59c 7 mg/kg i.p., mean ± sd, n=3; for 2 h Glucose: 2 h after single p.o. dose (BYL719 50, BKM120 50, GDC-0980 10, MK2206 150, GSK690693 30, GDC-0068 10 or 100, OSI-906 100 mg/kg); for 4 h Glucose: 4 h after single p.o. dose (same doses as 2 h)
CD-17 scid mice = conditions: cited from earlier work; for effect on GSK690693-induced hyperglycemia: CD-17 scid mice
VPS34 = VPS34 (Homo sapiens, UniProt Q8NEB9); conditions: read-out: Target Selectivity (IC50) VPS34; cited from earlier work
PI4Kβ = PI4Kβ (Homo sapiens, UniProt Q9UBF8); conditions: read-out: Target Selectivity (IC50) PI4Kβ; cited from earlier work
mTOR = mTOR (Homo sapiens, UniProt P42345); conditions: read-out: Target Selectivity (IC50) mTOR; cited from earlier work
ATR = ATR (Homo sapiens, UniProt Q13535); conditions: read-out: Target Selectivity (IC50) ATR; cited from earlier work
Sequence of ATR (Q13535 whole entry): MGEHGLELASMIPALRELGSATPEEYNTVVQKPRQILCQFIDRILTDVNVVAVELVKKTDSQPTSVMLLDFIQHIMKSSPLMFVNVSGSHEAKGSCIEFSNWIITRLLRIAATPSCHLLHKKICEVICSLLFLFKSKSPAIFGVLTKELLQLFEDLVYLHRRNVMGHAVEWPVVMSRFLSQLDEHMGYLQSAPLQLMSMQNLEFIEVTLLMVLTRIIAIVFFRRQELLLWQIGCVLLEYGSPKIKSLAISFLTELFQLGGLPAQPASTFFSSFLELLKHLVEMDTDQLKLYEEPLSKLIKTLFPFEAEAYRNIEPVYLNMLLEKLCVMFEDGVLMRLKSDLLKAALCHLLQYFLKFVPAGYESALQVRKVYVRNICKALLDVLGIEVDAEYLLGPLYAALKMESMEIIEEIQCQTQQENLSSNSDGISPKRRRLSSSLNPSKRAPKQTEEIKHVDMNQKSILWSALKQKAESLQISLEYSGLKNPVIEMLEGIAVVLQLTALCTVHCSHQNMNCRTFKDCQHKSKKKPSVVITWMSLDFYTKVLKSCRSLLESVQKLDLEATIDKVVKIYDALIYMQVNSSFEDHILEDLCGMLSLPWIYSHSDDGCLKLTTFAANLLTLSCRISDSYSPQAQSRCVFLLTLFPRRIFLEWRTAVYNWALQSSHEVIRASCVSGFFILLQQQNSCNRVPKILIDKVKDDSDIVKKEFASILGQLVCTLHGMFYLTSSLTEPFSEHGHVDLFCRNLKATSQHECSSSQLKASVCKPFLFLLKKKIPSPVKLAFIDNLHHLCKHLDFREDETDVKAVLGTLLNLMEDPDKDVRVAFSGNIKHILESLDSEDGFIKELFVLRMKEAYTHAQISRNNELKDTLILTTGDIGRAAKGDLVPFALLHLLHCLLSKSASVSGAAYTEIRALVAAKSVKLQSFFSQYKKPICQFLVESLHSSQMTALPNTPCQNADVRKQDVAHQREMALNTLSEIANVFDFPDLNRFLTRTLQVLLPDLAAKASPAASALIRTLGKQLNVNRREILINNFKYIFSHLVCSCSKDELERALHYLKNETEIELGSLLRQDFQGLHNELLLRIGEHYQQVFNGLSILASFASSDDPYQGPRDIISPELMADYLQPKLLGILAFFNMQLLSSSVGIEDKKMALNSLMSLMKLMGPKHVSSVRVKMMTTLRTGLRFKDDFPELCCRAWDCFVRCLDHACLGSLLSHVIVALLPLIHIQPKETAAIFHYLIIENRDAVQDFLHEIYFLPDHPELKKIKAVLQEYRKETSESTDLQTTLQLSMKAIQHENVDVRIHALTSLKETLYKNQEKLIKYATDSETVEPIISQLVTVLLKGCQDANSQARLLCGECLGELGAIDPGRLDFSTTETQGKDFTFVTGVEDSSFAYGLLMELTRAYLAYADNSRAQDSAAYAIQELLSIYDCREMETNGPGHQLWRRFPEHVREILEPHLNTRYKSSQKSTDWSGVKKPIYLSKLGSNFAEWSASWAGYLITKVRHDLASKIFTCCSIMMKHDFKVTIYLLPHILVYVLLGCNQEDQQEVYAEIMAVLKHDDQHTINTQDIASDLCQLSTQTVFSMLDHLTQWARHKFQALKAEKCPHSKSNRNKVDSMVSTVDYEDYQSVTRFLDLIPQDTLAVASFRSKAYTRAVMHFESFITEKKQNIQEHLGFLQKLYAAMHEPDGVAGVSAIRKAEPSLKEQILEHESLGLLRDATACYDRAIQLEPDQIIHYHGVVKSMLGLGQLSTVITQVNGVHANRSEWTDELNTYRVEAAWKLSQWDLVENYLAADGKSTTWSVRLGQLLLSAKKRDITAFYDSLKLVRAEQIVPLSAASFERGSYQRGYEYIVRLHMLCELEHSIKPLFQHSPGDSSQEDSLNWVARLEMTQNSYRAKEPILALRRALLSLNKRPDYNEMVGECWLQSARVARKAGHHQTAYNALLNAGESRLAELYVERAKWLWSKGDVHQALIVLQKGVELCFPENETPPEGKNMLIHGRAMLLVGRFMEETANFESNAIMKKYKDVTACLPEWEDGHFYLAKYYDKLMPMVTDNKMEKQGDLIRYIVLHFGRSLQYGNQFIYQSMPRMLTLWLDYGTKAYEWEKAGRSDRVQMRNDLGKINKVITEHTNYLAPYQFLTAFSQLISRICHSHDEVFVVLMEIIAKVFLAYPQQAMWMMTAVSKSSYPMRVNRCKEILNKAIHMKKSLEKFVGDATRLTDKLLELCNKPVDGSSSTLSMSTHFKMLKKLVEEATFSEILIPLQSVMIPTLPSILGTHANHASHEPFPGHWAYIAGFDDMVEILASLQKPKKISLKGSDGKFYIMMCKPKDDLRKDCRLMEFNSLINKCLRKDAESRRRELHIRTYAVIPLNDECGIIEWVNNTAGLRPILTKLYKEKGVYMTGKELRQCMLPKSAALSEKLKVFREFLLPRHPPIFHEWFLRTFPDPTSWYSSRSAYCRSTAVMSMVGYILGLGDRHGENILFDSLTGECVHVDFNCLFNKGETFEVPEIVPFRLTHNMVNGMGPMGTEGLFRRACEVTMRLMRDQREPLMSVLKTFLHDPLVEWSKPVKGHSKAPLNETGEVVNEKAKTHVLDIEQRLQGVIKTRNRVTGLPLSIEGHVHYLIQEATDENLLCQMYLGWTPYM
Sequence of ATR (Q8WXE1 whole entry partner): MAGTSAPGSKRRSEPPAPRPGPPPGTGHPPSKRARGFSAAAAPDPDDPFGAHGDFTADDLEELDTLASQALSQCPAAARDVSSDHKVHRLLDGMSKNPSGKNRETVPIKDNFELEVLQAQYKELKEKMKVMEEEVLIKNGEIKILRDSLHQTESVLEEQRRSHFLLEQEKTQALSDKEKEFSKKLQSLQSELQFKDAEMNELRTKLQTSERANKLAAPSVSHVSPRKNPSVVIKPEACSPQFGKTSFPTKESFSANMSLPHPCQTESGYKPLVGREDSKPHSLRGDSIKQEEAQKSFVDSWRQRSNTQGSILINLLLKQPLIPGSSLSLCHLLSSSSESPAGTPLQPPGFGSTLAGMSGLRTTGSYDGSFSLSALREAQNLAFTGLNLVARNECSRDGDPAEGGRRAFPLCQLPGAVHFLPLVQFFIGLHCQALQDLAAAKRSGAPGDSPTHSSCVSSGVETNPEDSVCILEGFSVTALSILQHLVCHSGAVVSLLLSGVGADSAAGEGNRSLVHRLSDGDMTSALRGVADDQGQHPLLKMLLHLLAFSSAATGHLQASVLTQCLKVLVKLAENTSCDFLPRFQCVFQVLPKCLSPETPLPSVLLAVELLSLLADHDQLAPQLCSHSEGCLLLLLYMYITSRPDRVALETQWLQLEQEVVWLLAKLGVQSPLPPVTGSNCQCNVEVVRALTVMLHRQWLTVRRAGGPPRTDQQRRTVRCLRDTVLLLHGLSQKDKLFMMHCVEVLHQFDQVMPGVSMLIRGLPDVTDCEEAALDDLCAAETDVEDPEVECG

[1] = test system: cancer patient of diverse malignancies; conditions: cancer patients; cited from earlier work
DNAPK = DNAPK (Homo sapiens, UniProt P78527); conditions: read-out: Target Selectivity (IC50) DNAPK; cited from earlier work
p70S6K = p70S6K (Homo sapiens, UniProt P23443); conditions: read-out: Target Selectivity (IC50) p70S6K; cited from earlier work
Sequence of p70S6K (P23443 whole entry): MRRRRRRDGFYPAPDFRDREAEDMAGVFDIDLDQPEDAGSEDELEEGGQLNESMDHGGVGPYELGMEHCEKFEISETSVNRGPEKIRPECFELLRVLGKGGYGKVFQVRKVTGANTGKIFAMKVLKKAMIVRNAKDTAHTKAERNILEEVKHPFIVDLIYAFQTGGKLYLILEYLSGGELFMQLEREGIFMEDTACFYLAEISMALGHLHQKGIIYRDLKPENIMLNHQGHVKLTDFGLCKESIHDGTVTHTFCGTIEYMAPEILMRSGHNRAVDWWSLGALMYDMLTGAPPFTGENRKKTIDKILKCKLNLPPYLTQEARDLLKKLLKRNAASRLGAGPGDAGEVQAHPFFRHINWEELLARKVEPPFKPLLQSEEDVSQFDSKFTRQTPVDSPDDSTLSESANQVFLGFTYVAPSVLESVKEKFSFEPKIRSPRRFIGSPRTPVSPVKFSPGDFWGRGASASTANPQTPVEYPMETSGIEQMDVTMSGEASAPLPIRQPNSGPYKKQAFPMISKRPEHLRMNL

[2] = test system: patients with type 1 diabetes; conditions: single dose 70 mg subcutaneous; cited from earlier work
BALB/c athymic nude mice = experiment: Glucose and insulin response to MK2206 with/without REMD2.59c pretreatment in BALB/c athymic nude mice (MiaPaCa2 tumor bearing or naive); type: in vivo, mouse; conditions: for −0.5 h Glucose: 0.5 h before MK2206 dosing
CSF1R = CSF1R (Homo sapiens, UniProt P07333); conditions: read-out: Target Selectivity (IC50) CSF1R; cited from earlier work
Sequence of CSF1R (P07333 20-972, species assumed): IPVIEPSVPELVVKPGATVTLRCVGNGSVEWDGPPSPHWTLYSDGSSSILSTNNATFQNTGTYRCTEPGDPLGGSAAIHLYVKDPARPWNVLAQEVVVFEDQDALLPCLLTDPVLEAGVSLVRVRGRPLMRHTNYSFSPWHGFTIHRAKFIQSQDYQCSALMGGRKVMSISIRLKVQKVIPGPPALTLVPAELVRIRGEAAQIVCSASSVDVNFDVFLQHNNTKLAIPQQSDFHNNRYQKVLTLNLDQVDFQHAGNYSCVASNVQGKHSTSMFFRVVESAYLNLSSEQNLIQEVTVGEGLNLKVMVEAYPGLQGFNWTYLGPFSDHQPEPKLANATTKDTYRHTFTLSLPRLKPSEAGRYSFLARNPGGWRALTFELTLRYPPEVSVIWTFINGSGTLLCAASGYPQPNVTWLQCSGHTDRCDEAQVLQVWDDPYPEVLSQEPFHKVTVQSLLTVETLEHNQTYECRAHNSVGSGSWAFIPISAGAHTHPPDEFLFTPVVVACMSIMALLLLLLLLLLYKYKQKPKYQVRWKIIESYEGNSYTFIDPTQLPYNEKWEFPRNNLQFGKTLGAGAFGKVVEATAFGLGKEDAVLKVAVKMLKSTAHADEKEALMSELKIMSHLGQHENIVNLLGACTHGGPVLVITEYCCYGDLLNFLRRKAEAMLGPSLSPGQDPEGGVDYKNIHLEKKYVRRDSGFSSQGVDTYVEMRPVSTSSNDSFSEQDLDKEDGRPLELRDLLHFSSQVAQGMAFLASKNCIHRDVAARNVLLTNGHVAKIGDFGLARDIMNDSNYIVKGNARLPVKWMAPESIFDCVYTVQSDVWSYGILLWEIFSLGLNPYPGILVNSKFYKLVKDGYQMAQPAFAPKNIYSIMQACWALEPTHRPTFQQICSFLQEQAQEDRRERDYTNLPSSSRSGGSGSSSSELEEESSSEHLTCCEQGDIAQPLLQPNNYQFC

Cc1c(CN2CCN(C(=O)[C@H](C)O)CC2)sc2c(N3CCOCC3)nc(-c3cnc(N)nc3)nc12 [GDC-0980, apitolisib]
2 h Glucose (C57BL/6 mice): 27.0 ± 1.8 mM | 4 h Glucose (C57BL/6 mice): 20.5 ± 0.9 mM

CCn1c(-c2nonc2N)nc2c(C#CC(C)(C)O)ncc(OC[C@H]3CCCNC3)c21 [GSK690693]
2 h Glucose (C57BL/6 mice): 27.1 ± 2.6 mM | 4 h Glucose (C57BL/6 mice): 21.2 ± 1.5 mM | induction of hyperglycemia (CD-17 scid mice; mouse, in vivo): potently induces

Cc1nc(NC(=O)N2CCC[C@H]2C(N)=O)sc1-c1ccnc(C(C)(C)C(F)(F)F)c1 [BYL719, alpelisib]
2 h Glucose (C57BL/6 mice): 17.4 ± 1.4 mM | 4 h Glucose (C57BL/6 mice): 11.9 ± 3.3 mM | IC50 (VPS34): 9.1 µM | IC50 (PI4Kβ): 0.581 µM | IC50 (mTOR): 9.1 µM | IC50 (ATR): 15 µM | efficacy in Phase I/II clinical trials [1]: minimal | hyperglycemia and hyperinsulinemia in Phase I/II clinical trials [1]: consistently observed | IC50 (DNAPK): 9.1 µM

Exendin-4
effect on GSK690693-induced hyperglycemia (CD-17 scid mice): not prevented or reduce

CN(C)C(=N)N=C(N)N [metformin]
effect on GSK690693-induced hyperglycemia (CD-17 scid mice): not prevented or reduce

CC(C)NC[C@@H](C(=O)N1CCN(c2ncnc3c2[C@H](C)C[C@H]3O)CC1)c1ccc(Cl)cc1 [GDC-0068, ipatasertib]
2 h Glucose (C57BL/6 mice): 28.4 ± 2.0 mM | 4 h Glucose (C57BL/6 mice): 25.9 ± 1.2 mM | IC50 (p70S6K): 0.862 µM

C[C@]1(O)C[C@@H](c2nc(-c3ccc4ccc(-c5ccccc5)nc4c3)c3c(N)nccn32)C1 [OSI-906, linsitinib]
2 h Glucose (C57BL/6 mice): 29.3 ± 1.7 mM | 4 h Glucose (C57BL/6 mice): 23.4 ± 1.5 mM

REMD-477: fully human anti-GCGR monoclonal antibody, heavy chain SEQ ID NO: 49 and light chain SEQ ID NO: 50
amount of insulin needed [2]: substantially reduce | glucose levels [2]: improve | hypoglycemia (low blood glucose levels) [2]: without increasing

NC1(c2ccc(-c3nc4ccn5c(=O)[nH]nc5c4cc3-c3ccccc3)cc2)CCC1 [MK2206]
2 h Glucose (C57BL/6 mice): 20.1 ± 0.8 mM | 4 h Glucose (C57BL/6 mice): 9.6 ± 1.3 mM | glucose levels after 2 h treatment (BALB/c athymic nude mice; BALB/c nude mice, MK2206 150 mg/kg p.o.): not increased | increase in serum insulin after 2 h treatment (BALB/c athymic nude mice; BALB/c nude tumor bearing mice, MK2206 150 mg/kg p.o., statistically significant): 65.5 fold | 4 h Insulin (BALB/c athymic nude mice; Table 4 (glucose table), MiaPaCa2 tumor bearing BALB/c nude mice, 4 h after MK2206 150 mg/kg p.o.): 4.9 ± 0.8 ng/mL | 4 h Insulin (BALB/c athymic nude mice; Table 4 (glucose table), naive (tumor-free) BALB/c nude mice, 4 h after MK2206 150 mg/kg): 5.7 ± 1.0 ng/mL | −0.5 h Glucose (BALB/c athymic nude mice; Table 4, MiaPaCa2 tumor bearing BALB/c nude mice, 24 h after ASN or REMD2.59c, mean ± sd, n=3): 5.6 ± 0.8 mM | 2 h Glucose (BALB/c athymic nude mice; Table 4, MiaPaCa2 tumor bearing BALB/c nude mice, 2 h after MK2206 150 mg/kg p.o.): 5.5 ± 1.0 mM | −0.5 h Glucose (BALB/c athymic nude mice; Table 4, naive (tumor-free) BALB/c nude mice, no pretreatment): 5.7 ± 0.9 mM | 2 h Glucose (BALB/c athymic nude mice; Table 4, naive (tumor-free) BALB/c nude mice, 2 h after MK2206 150 mg/kg): 5.8 ± 0.5 mM | 2 h Glucose (BALB/c athymic nude mice; Table 5 (insulin table), MiaPaCa2 tumor bearing BALB/c nude mice, 2 h after MK2206 150 mg/kg p.o.): 26.2 ± 19.4 mM | 4 h Insulin (BALB/c athymic nude mice; Table 5, MiaPaCa2 tumor bearing BALB/c nude mice, 4 h after MK2206 150 mg/kg p.o.): 7.1 ± 2.1 ng/mL | efficacy in Phase I/II clinical trials [1]: minimal | hyperglycemia and hyperinsulinemia in Phase I/II clinical trials [1]: consistently observed

Nc1cc(C(F)(F)F)c(-c2cc(N3CCOCC3)nc(N3CCOCC3)n2)cn1 [BKM120, buparlisib]
2 h Glucose (C57BL/6 mice): 15.7 ± 2.5 mM | 4 h Glucose (C57BL/6 mice): 9.1 ± 1.3 mM | IC50 (ATR): 8.09 µM | IC50 (CSF1R): 0.582 µM | efficacy in Phase I/II clinical trials [1]: minimal | hyperglycemia and hyperinsulinemia in Phase I/II clinical trials [1]: consistently observed

N#C[C@@H]1CCCN1C(=O)CNC12CC3CC(CC(O)(C3)C1)C2 [vildagliptin]
effect on GSK690693-induced hyperglycemia (CD-17 scid mice): not prevented or reduce
